# Reference: patent publication US11332459B2 (TEIJIN PHARMA LIMITED, priority 2017, dated 2022)
# Biological target: T1, human TRPC6 (Homo sapiens, UniProt Q9Y210)
# T1 construct: expressed in transfected cells
# T1 sequence (Q9Y210 1-931): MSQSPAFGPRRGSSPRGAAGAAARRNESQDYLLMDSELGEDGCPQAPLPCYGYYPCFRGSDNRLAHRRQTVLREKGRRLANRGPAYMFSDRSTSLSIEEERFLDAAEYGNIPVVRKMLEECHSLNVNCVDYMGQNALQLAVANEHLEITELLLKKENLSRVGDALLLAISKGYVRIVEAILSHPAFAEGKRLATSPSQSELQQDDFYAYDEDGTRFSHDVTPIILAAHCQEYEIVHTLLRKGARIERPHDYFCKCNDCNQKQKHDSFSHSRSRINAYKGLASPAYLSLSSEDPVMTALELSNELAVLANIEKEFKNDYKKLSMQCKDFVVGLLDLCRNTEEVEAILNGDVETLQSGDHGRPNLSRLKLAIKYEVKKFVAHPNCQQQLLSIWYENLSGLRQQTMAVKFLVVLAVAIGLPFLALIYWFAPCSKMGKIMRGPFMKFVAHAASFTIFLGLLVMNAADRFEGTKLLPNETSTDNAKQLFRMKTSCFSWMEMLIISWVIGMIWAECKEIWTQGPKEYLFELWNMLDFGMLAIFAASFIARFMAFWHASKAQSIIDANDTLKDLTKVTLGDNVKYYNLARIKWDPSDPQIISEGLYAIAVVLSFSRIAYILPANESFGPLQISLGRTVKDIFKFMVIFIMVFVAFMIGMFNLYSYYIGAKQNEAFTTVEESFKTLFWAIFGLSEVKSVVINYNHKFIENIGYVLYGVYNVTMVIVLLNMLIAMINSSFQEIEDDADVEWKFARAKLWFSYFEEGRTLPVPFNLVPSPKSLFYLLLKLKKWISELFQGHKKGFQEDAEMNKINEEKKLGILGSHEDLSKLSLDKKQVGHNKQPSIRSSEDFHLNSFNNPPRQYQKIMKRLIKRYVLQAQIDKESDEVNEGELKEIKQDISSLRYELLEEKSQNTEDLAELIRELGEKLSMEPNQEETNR
# Test: TRPC6 calcium flux assay (FLIPR, OAG-stimulated calcium influx)
# Format: cell-based
# Settings: HEK293 cells stably transfected with human TRPC6, read-out: hTRPC6 Potency
# In short: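 HEK293 cells stably expressing human TRPC6, loaded with calcium dye 90–120 min at RT, then given compound for 25 min before OAG (50 uM final, 0.5% DMSO) in HEPES buffer pH 7.2 with 2 mM CaCl2. Background-subtracted FLIPR peak over 180 s normalized to OAG vs buffer; IC50 from dose plot.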
row,IC50 [nM],Structure (SMILES)
1,2930,"C[C@H](c1cccc(Cl)c1)n1c(N2CC[C@@H](F)[C@H](N)C2)nc2cc(F)c(F)cc21 [Example 326, (3R,4R)-1-(1-((1R)-1-(3-chlorophenyl)ethyl)-5,6-difluoro-1H-benzimidazol-2-yl)-4-fluoro-3-piperidinamine]"
2,1370,"C[C@@H](c1cccc(Cl)c1)n1c(N2CC[C@@H](F)[C@H](N)C2)nc2cc(F)c(F)cc21 [Example 327, (3R,4R)-1-(1-((1S)-1-(3-chlorophenyl)ethyl)-5,6-difluoro-1H-benzimidazol-2-yl)-4-fluoro-3-piperidinamine]"
3,> 3750,"C[C@H](c1cc(Cl)ccc1Cl)n1c(N2CC[C@@H](F)[C@H](N)C2)nc2cc(F)c(F)cc21 [Example 328, (3R,4R)-1-(1-((1R)-1-(2,5-dichlorophenyl)ethyl)-5,6-difluoro-1H-benzimidazol-2-yl)-4-fluoro-3-piperidinamine]"
4,> 3750,"C[C@@H](c1cc(Cl)ccc1Cl)n1c(N2CC[C@@H](F)[C@H](N)C2)nc2cc(F)c(F)cc21 [Example 329, (3R,4R)-1-(1-((1S)-1-(2,5-dichlorophenyl)ethyl)-5,6-difluoro-1H-benzimidazol-2-yl)-4-fluoro-3-piperidinamine]"
5,669,"C[C@H](c1ccc(F)cc1F)n1c(N2CC[C@@H](F)[C@H](N)C2)nc2cc(F)c(F)cc21 [Example 330, (3R,4R)-1-(1-((1R)-1-(2,4-difluorophenyl)ethyl)-5,6-difluoro-1H-benzimidazol-2-yl)-4-fluoro-3-piperidinamine]"
6,204,"C[C@@H](c1ccc(F)cc1F)n1c(N2CC[C@@H](F)[C@H](N)C2)nc2cc(F)c(F)cc21 [Example 331, (3R,4R)-1-(1-((1S)-1-(2,4-difluorophenyl)ethyl)-5,6-difluoro-1H-benzimidazol-2-yl)-4-fluoro-3-piperidinamine]"
7,3200,"C[C@H](c1ccc(Cl)c(Cl)c1)n1c(N2CC[C@@H](F)[C@H](N)C2)nc2cc(F)c(F)cc21 [Example 332, (3R,4R)-1-(1-((1R)-1-(3,4-dichlorophenyl)ethyl)-5,6-difluoro-1H-benzimidazol-2-yl)-4-fluoro-3-piperidinamine]"
8,3250,"C[C@@H](c1ccc(Cl)c(Cl)c1)n1c(N2CC[C@@H](F)[C@H](N)C2)nc2cc(F)c(F)cc21 [Example 333, (3R,4R)-1-(1-((1S)-1-(3,4-dichlorophenyl)ethyl)-5,6-difluoro-1H-benzimidazol-2-yl)-4-fluoro-3-piperidinamine]"
9,3540,"C[C@H](c1cc(F)ccc1F)n1c(N2CC[C@@H](F)[C@H](N)C2)nc2cc(F)c(F)cc21 [Example 334, (3R,4R)-1-(1-((1R)-(2,5-difluorophenyl)ethyl)-5,6-difluoro-1H-benzimidazol-2-yl)-4-fluoro-3-piperidinamine]"
10,> 3750,"C[C@@H](c1cc(F)ccc1F)n1c(N2CC[C@@H](F)[C@H](N)C2)nc2cc(F)c(F)cc21 [Example 335, (3R,4R)-1-(1-((1S)-1-(2,5-difluorophenyl)ethyl)-5,6-difluoro-1H-benzimidazol-2-yl)-4-fluoro-3-piperidinamine]"
11,> 3750,"C[C@H](c1ccc(C(F)(F)F)cc1)n1c(N2CC[C@@H](F)[C@H](N)C2)nc2cc(F)c(F)cc21 [Example 336, (3R,4R)-1-(5,6-difluoro-1-((1R)-1-(4-(trifluoromethyl)phenyl)ethyl)-1H-benzimidazol-2-yl)-4-fluoro-3-piperidinamine]"
12,> 3750,"C[C@H](c1ccc(OC(F)(F)F)cc1)n1c(N2CC[C@@H](F)[C@H](N)C2)nc2cc(F)c(F)cc21 [Example 337, (3R,4R)-1-(5,6-difluoro-1-((1R)-1-(4-(trifluoromethoxy)phenyl)ethyl)-1H-benzimidazol-2-yl)-4-fluoro-3-piperidinamine]"
13,> 3750,"N[C@@H]1CN(c2nc3cc(F)c(F)cc3n2Cc2cc(Cl)ccc2OC(F)(F)F)CC[C@H]1F [Example 338, (3R,4R)-1-(1-(5-chloro-2-2-(trifluoromethoxy)benzyl)-5,6-difluoro-1H-benzimidazol-2-yl)-4-fluoro-3-piperidinamine]"
14,3.23,"N[C@@H]1CN(c2nc3cc(F)c(F)cc3n2Cc2ccc(-n3cncn3)cc2)CC[C@H]1F [Example 339, (3R,4R)-1-(5,6-difluoro-1-(4-(1H-1,2,4-triazol-1-yl)benzyl)-1H-benzimidazol-2-yl)-4-fluoro-3-piperidinamine]"
15,0.704,"N#Cc1cc(Cl)ccc1Cn1c(N2CC[C@@H](F)[C@H](N)C2)nc2cc(F)c(F)cc21 [Example 340, 2-((2-((3R,4R)-3-amino-4-fluoro-1-piperidinyl)-5,6-difluoro-1H-benzimidazol-1-yl)methyl)-5-chlorobenzonitrile]"
16,25.8,"N[C@@H]1CN(c2nc3cc(F)c(F)cc3n2Cc2ccc(Cl)cc2Cl)CC[C@H]1F [Example 341, (3R,4R)-1-(1-(2,4-dichlorobenzyl)-5,6-difluoro-1H-benzimidazol-2-yl)-4-fluoro-3-piperidinamine]"
17,12.1,"N#Cc1ccc(Cn2c(N3CC[C@@H](F)[C@H](N)C3)nc3cc(F)c(F)cc32)c(OC(F)F)c1 [Example 342, 4-((2-((3R,4R)-3-amino-4-fluoro-1-piperidinyl)-5,6-difluoro-1H-benzimidazol-1-yl)methyl)-3-(difluoromethoxy)benzo-nitrile]"
18,804,"N[C@@H]1CN(c2nc3cc(F)c(F)cc3n2Cc2cc(Cl)ccc2Cl)CC[C@H]1F [Example 343, (3R,4R)-1-(1-(2,5-dichlorobenzyl)-5,6-difluoro-1H-benzimidazol-2-yl)-4-fluoro-3-piperidinamine]"
19,85.3,"CC(F)(F)c1ccc(Cn2c(N3CC[C@@H](F)[C@H](N)C3)nc3cc(F)c(F)cc32)cc1 [Example 344, (3R,4R)-1-(1-(4-(1,1-difluoroethyl)benzyl)-5,6-difluoro-1H-benzimidazol-2-yl)-4-fluoro-3-piperidinamine]"
20,1.39,"N#Cc1ccc(Cn2c(N3CC[C@@H](F)[C@H](N)C3)nc3cc(F)c(F)cc32)cc1Cl [Example 346, 4-((2-((3R,4R)-3-amino-4-fluoro-1-piperidinyl)-5,6-difluoro-1H-benzimidazol-1-yl)methyl)-2-chlorobenzonitrile]"
21,1.07,"N#Cc1ccc(Cl)cc1Cn1c(N2CC[C@@H](F)[C@H](N)C2)nc2cc(F)c(F)cc21 [Example 347, 2-((2-((3R,4R)-3-amino-4-fluoro-1-piperidinyl)-5,6-difluoro-1H-benzimidazol-1-yl)methyl)-4-chlorobenzonitrile]"
22,493,"N[C@@H]1CN(c2nc3cc(F)c(F)cc3n2Cc2ccccc2OC(F)F)CC[C@H]1F [Example 348, (3R,4R)-1-(1-(2-(difluoromethoxy)benzyl)-5,6-difluoro-1H-benzimidazol-2-yl)-4-fluoro-3-piperidinamine]"
23,215,"N[C@@H]1CN(c2nc3cc(F)c(F)cc3n2Cc2ccc(F)c(Cl)c2)CC[C@H]1F [Example 349, (3R,4R)-1-(1-(3-chloro-4-fluorobenzyl)-5,6-difluoro-1H-benzimidazol-2-yl)-4-fluoro-3-piperidinamine]"
24,351,"COc1cc(Cl)ccc1Cn1c(N2CC[C@@H](F)[C@H](N)C2)nc2cc(F)c(F)cc21 [Example 350, (3R,4R)-1-(1-(4-chloro-2-methoxybenzyl)-5,6-difluoro-1H-benzimidazol-2-yl)-4-fluoro-3-piperidinamine]"
